Results reported in patent US7083667B2, “Colorant compound, ink, ink tank, recording unit, recording apparatus and recording process” (Canon Kabushiki Kaisha, priority 2004, dated 2006).

Assay: Determination of solubility in chloroform at room temperature
Type: physicochemical
Conditions: for Solubility in chloroform (in words): nonpolar solvent; for Solubility: in chloroform, room temperature
Procedure: Determination of Solubility
With respect to Colorant Compounds (5) to (16) obtained above, solubility in chloroform at room temperature was determined.

Compound	Solubility in chloroform (in words)	Solubility [% by mass]
Cc1cccc(C)c1N=c1ccc2c(-c3ccccc3S(=O)(=O)O)c3ccc(Nc4c(C)ccc(S(=O)(=O)[O-])c4C)cc3oc-2c1.[Na+] [C.I. Acid Red 289, reference compound]	not dissolved	–
CCOC(=O)c1ccccc1-c1c2cc/c(=N\c3c(C)cccc3C)cc-2oc2cc(Nc3c(C)cccc3C)ccc12.Cl [Compound (5)]	–	10.7
CCOC(=O)c1ccccc1-c1c2cc/c(=N\c3c(C)cccc3C)cc-2oc2cc(Nc3c(C)cccc3C)ccc12 [Compound (6)]	higher solubility	20.5
